The results in this text go back to patent publication US11279733B2, “Peptide antibiotics” (priority 2017, dated 2022).

In one assay the test system is A. baumannii ATCC 19606. As to conditions: ATCC 19606. In a few lines:
(§1)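 Mid-log cultures grown in Mueller Hinton broth at 37° C were tested by 2-fold broth microdilution at 5×10^5 CFU/mL final. Compounds were dissolved in water and tested over a final range of 32 to 0.015 μg/mL.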

A further assay concerns A. baumannii GN_093 PmxR. As to conditions: GN 093 PmxR. In a few lines: as §1
In the next assay the test system is E. coli ATCC 25922. As to conditions: ATCC 25922. Summed up: as §1
For a further assay, the system named is K. pneumoniae ATCC 13883. As to conditions: ATCC 13883. In a few lines:
as §1

In assay [1] the test system is K. pneumoniae ATCC 700603, MDR. As to conditions: ATCC 700603. In a few lines: as §1
In assay [2] the test system is K. pneumoniae ATCC BAA-2146, NDM-1 pos. As to conditions: ATCC BAA-2146. In a few lines: as §1
Assay [3] deals with K. pneumoniae GN_102 PmxR. To be noted: GN 102 PmxR. Summed up: as §1
Assay [4] deals with K. pneumoniae GN_106, PmxR. To be noted: GN 106, PmxR. Summed up:
as §1

A further assay concerns P. aeruginosa ATCC 27853. As to conditions: ATCC 27853. Summed up: as §1
The subject of assay [5] is P. aeruginosa GN_043, PmxR. Summed up: as §1
For assay [6], the system named is P. aeruginosa GN_105, PmxR. To be noted: GN 105, PmxR. In a few lines:
as §1

In assay [7] the test system is S. aureus ATCC 25923, MSSA. As to conditions: ATCC 25923. Summed up: as §1

Converted amounts (≈) assume the structure as drawn. Like-named read-outs stand apart in the source and are kept apart here. Positions of bridges follow the written chain, without caps; N, C: chain ends. Non-standard residues stand in square brackets, D forms with d. Residues, ends and D or L forms follow the SMILES beside them. *: point of attachment. Decanoyl(3R-OH) = CCCCCCC[C@@H](O)CC(=O)*; hPhe = N[C@@H](CCc1ccccc1)C(=O)O; Nonanoyl = CCCCCCCCC(=O)*; dDab = NCC[C@@H](N)C(=O)O; Octanoyl = CCCCCCCC(=O)*; dDap = NC[C@@H](N)C(=O)O; Dab = NCC[C@H](N)C(=O)O

With `CCCCCCC[C@@H](O)CC(=O)N[C@H](CCN)C(=O)N[C@H]1CCNC(=O)[C@H](Cc2c[nH]c3ccccc23)NC(=O)[C@H](CCN)NC(=O)[C@H](CCN)NC(=O)[C@H](CCc2ccccc2)NC(=O)[C@@H](Cc2ccccc2)NC(=O)[C@H](CCN)NC1=O` [compound 8834, nC10-3(R)OH-D-Dab-cyc[L-Dab-L-Dab-D-Phe-L-hPhe-L-Dab-L-Dab-L-Trp]] ({Decanoyl(3R-OH)}-[dDab][Dab][Dab][dF][hPhe][Dab][Dab]W; lactam 2-C), the “MIC A. baumannii ATCC 19606” value with A. baumannii ATCC 19606 came to 8 µg/mL (≈ 6.86 µM). For the same compound, in the assay with A. baumannii GN_093 PmxR, the “MIC A. baumannii GN_093 PmxR” value was 8 µg/mL (≈ 6.86 µM). Moreover, the “MIC E. coli ATCC 25922” value against E. coli ATCC 25922 is 8 µg/mL (≈ 6.86 µM). The “MIC K. pneumoniae ATCC 13883” value in the assay with K. pneumoniae ATCC 13883 came out at 4 µg/mL (≈ 3.43 µM). Moreover, the “MIC K. pneumoniae ATCC 700603, MDR” value in [1] is 8 µg/mL (≈ 6.86 µM). The “MIC K. pneumoniae ATCC BAA-2146, NDM-1 pos” value in assay [2] was determined as 8 µg/mL (≈ 6.86 µM). Further, the “MIC K. pneumoniae GN_102 PmxR” value in assay [3] was 4 µg/mL (≈ 3.43 µM). Moreover, the “MIC K. pneumoniae GN_106, PmxR” value in assay [4] was found to be 8 µg/mL (≈ 6.86 µM). The “MIC P. aeruginosa ATCC 27853” value against P. aeruginosa ATCC 27853 was determined as 4 µg/mL (≈ 3.43 µM). Besides, in [5] (polymyxin-resistant), the “MIC P. aeruginosa GN_043, PmxR” value came out at 4 µg/mL (≈ 3.43 µM). Besides, in [6], the “MIC P. aeruginosa GN_105, PmxR” value worked out at 32 µg/mL (≈ 27.5 µM). The “MIC S. aureus ATCC 25923, MSSA” value in assay [7] was found to be 4 µg/mL (≈ 3.43 µM).

For the compound `CCCCCCC[C@@H](O)CC(=O)N[C@H](CN)C(=O)N[C@H]1CCNC(=O)[C@H](CC(C)C)NC(=O)[C@H](CCN)NC(=O)[C@H](CCN)NC(=O)[C@H](CC(C)C)NC(=O)[C@@H](CC(C)C)NC(=O)[C@H](CCN)NC1=O` [compound 8977, nC10-3(R)OH-D-Dap-(L-Dab-L-Dab-D-Leu-L-Leu-L-Dab-L-Dab-L-Leu)] ({Decanoyl(3R-OH)}-[dDap][Dab][Dab][dL]L[Dab][Dab]L; lactam 2-C), the “MIC A. baumannii ATCC 19606” value in the assay with A. baumannii ATCC 19606 worked out at 8 µg/mL (≈ 8.03 µM). Besides, the “MIC A. baumannii GN_093 PmxR” value against A. baumannii GN_093 PmxR is 2 µg/mL (≈ 2.01 µM). The “MIC E. coli ATCC 25922” value in the assay with E. coli ATCC 25922 came to 4 µg/mL (≈ 4.01 µM). In the assay with K. pneumoniae ATCC 13883, the “MIC K. pneumoniae ATCC 13883” value came out at 8 µg/mL (≈ 8.03 µM). Besides, the “MIC K. pneumoniae ATCC 700603, MDR” value in [1] is 4 µg/mL (≈ 4.01 µM). Further, the “MIC K. pneumoniae ATCC BAA-2146, NDM-1 pos” value in assay [2] came out at 8 µg/mL (≈ 8.03 µM). In addition, in [3], the “MIC K. pneumoniae GN_102 PmxR” value turned out to be 2 µg/mL (≈ 2.01 µM). Also, the “MIC K. pneumoniae GN_106, PmxR” value in assay [4] amounted to 4 µg/mL (≈ 4.01 µM). Further, the “MIC P. aeruginosa ATCC 27853” value in the assay on P. aeruginosa ATCC 27853 was determined as 4 µg/mL (≈ 4.01 µM). The “MIC P. aeruginosa GN_043, PmxR” value in [5] (P. aeruginosa GN_043, PmxR) came to 2 µg/mL (≈ 2.01 µM). In addition, in assay [6], the “MIC P. aeruginosa GN_105, PmxR” value worked out at 2 µg/mL (≈ 2.01 µM). The “MIC S. aureus ATCC 25923, MSSA” value in assay [7] worked out at 32 µg/mL (≈ 32.1 µM).

Take `CCCCCCCC(=O)N[C@H](CN)C(=O)N[C@H]1CCNC(=O)[C@H](CC(C)C)NC(=O)[C@H](CCN)NC(=O)[C@H](CCN)NC(=O)[C@H](CC(C)C)NC(=O)[C@@H](CC(C)C)NC(=O)[C@H](CCN)NC1=O` [compound 8978, nC7CO-D-Dap-cyc[L-Dab-L-Dab-D-Leu-L-Leu-L-Dab-L-Dab-L-Leu]] (Octanoyl-[dDap][Dab][Dab][dL]L[Dab][Dab]L; lactam 2-C): the “MIC A. baumannii ATCC 19606” value in the assay with A. baumannii ATCC 19606 was determined as 32 µg/mL (≈ 33.6 µM). In addition, in the assay on A. baumannii GN_093 PmxR, the “MIC A. baumannii GN_093 PmxR” value was determined as 8 µg/mL (≈ 8.4 µM). Besides, the “MIC E. coli ATCC 25922” value in the assay on E. coli ATCC 25922 worked out at 4 µg/mL (≈ 4.2 µM). Besides, in the assay with K. pneumoniae ATCC 13883, the “MIC K. pneumoniae ATCC 13883” value amounted to 16 µg/mL (≈ 16.8 µM). In [1], the “MIC K. pneumoniae ATCC 700603, MDR” value was 16 µg/mL (≈ 16.8 µM). Also, the “MIC K. pneumoniae ATCC BAA-2146, NDM-1 pos” value in assay [2] turned out to be 16 µg/mL (≈ 16.8 µM). For the same compound, the “MIC K. pneumoniae GN_102 PmxR” value in assay [3] stood at 32 µg/mL (≈ 33.6 µM). Also, in assay [4], the “MIC K. pneumoniae GN_106, PmxR” value is 32 µg/mL (≈ 33.6 µM). Moreover, the “MIC P. aeruginosa ATCC 27853” value with P. aeruginosa ATCC 27853 is 2 µg/mL (≈ 2.1 µM). The “MIC P. aeruginosa GN_043, PmxR” value in assay [5] (P. aeruginosa GN_043, PmxR) was 4 µg/mL (≈ 4.2 µM). In addition, in assay [6], the “MIC P. aeruginosa GN_105, PmxR” value was determined as 2 µg/mL (≈ 2.1 µM). Moreover, the “MIC S. aureus ATCC 25923, MSSA” value in assay [7] was greater than 32 µg/mL.

Take `CCCCCCCCC(=O)N[C@@H](CCN)C(=O)N[C@H](C(=O)N[C@@H](CCN)C(=O)N[C@H]1CCNC(=O)[C@H](Cc2c[nH]c3ccccc23)NC(=O)[C@H](CCN)NC(=O)[C@H](CCN)NC(=O)[C@H](CC(C)C)NC(=O)[C@@H](Cc2ccccc2)NC(=O)[C@H](CCN)NC1=O)[C@@H](C)O` [compound 9032, nC8CO-L-Dab-L-Thr-L-Dab-cyc[L-Dab-L-Dab-D-Phe-L-Leu-L-Dab-L-Dab-L-Trp]] (Nonanoyl-[Dab]T[Dab][Dab][Dab][dF]L[Dab][Dab]W; lactam 4-C): the “MIC A. baumannii ATCC 19606” value against A. baumannii ATCC 19606 is 8 µg/mL (≈ 6.21 µM). The “MIC A. baumannii GN_093 PmxR” value with A. baumannii GN_093 PmxR worked out at 8 µg/mL (≈ 6.21 µM). Further, the “MIC E. coli ATCC 25922” value against E. coli ATCC 25922 is 4 µg/mL (≈ 3.1 µM). The “MIC K. pneumoniae ATCC 13883” value in the assay with K. pneumoniae ATCC 13883 turned out to be 8 µg/mL (≈ 6.21 µM). Also, the “MIC K. pneumoniae ATCC 700603, MDR” value in assay [1] turned out to be 8 µg/mL (≈ 6.21 µM). The “MIC K. pneumoniae ATCC BAA-2146, NDM-1 pos” value in assay [2] stood at 8 µg/mL (≈ 6.21 µM). Besides, the “MIC K. pneumoniae GN_102 PmxR” value in assay [3] was found to be 4 µg/mL (≈ 3.1 µM). In addition, the “MIC K. pneumoniae GN_106, PmxR” value in assay [4] was 4 µg/mL (≈ 3.1 µM). Besides, in the assay with P. aeruginosa ATCC 27853, the “MIC P. aeruginosa ATCC 27853” value was 2 µg/mL (≈ 1.55 µM). In [5] (polymyxin-resistant), the “MIC P. aeruginosa GN_043, PmxR” value worked out at 1 µg/mL (≈ 0.776 µM). Further, the “MIC P. aeruginosa GN_105, PmxR” value in assay [6] was found to be 2 µg/mL (≈ 1.55 µM). Moreover, the “MIC S. aureus ATCC 25923, MSSA” value in assay [7] was 16 µg/mL (≈ 12.4 µM).
